Test results: patent publication US11278530B2, “Polycyclic amides as muscarinic M1 receptor positive allosteric modulators” (SUVEN LIFE SCIENCES LIMITED, priority 2017, dated 2022)

Experiments:
[1] = target: T1, recombinant human Muscarinic M1 receptor (Homo sapiens, UniProt P11229); assay: Allosteric potency EC50 for Muscarinic M1 receptor, CHO pCRE-Luc reporter cell-based assay with EC20 of acetylcholine; conditions: CHO cells, human M1, luciferase reporter, in presence of EC20 of acetylcholine, 4 h
T1 sequence (P11229 1-460): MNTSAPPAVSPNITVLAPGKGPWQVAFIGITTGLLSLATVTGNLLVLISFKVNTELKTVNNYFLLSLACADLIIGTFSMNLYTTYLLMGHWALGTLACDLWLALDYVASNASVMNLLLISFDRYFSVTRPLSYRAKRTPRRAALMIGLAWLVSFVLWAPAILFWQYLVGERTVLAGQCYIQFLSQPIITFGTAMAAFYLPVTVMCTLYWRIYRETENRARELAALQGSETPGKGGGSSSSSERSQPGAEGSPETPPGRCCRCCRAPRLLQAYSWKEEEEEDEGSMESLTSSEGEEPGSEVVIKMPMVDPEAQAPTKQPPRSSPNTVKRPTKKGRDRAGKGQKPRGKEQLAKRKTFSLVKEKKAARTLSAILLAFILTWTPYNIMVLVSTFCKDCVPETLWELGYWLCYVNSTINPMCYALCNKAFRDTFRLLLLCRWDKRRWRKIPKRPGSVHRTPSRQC
Procedure: Determination of allosteric potency EC50 values for Muscarinic M1 receptor:
A stable CHO cell line expressing recombinant human Muscarinic M1 receptor and pCRE-Luc reporter system was used for cell-based assay. The assay offers a non-radioactive based approach to determine binding of a compound to GPCRs. In this specific assay, the level of intracellular cyclic AMP which is modulated by activation or inhibition of the receptor is measured. The recombinant cells harbor luciferase reporter gene under the control of cAMP response element.
The above cells were grown in 96 well clear bottom white plates in Hams F12 medium containing 10% fetal bovine serum (FBS). Prior to the addition of compounds or standard agonist, cells were serum starved overnight. Increasing concentrations of test compounds were added along with EC20 of acetylcholine in OptiMEM medium to the cells. The incubation was continued at 37° C. in CO2 incubator for 4 h. Medium was removed and cells were washed with phosphate buffered saline. The cells were lysed and luciferase activity was measured in a Luminometer. Luminescence counts in each concentrations of test item were normalized to the acetylcholine induced maximum response and the data was analyzed using Graphpad software. EC50 values of the compounds were defined as the concentration required in stimulating the luciferase activity by 50% in presence of EC20 of acetylcholine.

[2] = Rodent pharmacokinetic study; assay type: in vivo, Male Wistar rats; conditions: male, Wistar, rat, plasma; for bioavailability: oral 3 mg/kg vs i.v. 1 mg/kg, read-out: F (bioavailability)
Procedure: Rodent Pharmacokinetic Study
Male Wistar rats (260±50 grams) were used as experimental animals. Animals were housed individually in polypropylene cage. Two days prior to study, male Wistar rats were anesthetized with isoflurane for surgical placement of jugular vein catheter. Rats were randomly divided for oral (3 mg/kg) and intravenous (i.v) (1 mg/kg) dosing (n=3/group) and fasted overnight before oral dosing (p.o.). However, rats allocated to intravenous (i.v.) dosing food and water was provided ad libitum.
At pre-determined point, blood was collected through jugular vein and replenished with an equivalent volume of normal saline. Collected blood was transferred into a labelled eppendorf tube containing 10 μL of heparin as an anticoagulant. Typically blood samples were collected at following time points: 0.08, 0.25, 0.5, 1, 2, 4, 6, 8, and 24 h post dose. Blood was centrifuged at 4000 rpm for 10 minutes. Plasma was separated and stored frozen at −80° C. until analysis. The concentrations of the test compounds were quantified in plasma by qualified LC-MS/MS method using suitable extraction technique. The test compounds were quantified in the calibration range around 1-1000 ng/mL in plasma. Study samples were analyzed using calibration samples in the batch and quality control samples spread across the batch.
Pharmacokinetic parameters Cmax, Tmax (h), AUCt, T1/2, clearance and bioavailability (F) were calculated by non-compartmental model using standard non-compartmental model by using Phoenix WinNonlin 6.0.2 or 6.0.3 version Software package.

[3] = Rodent brain penetration study; assay type: in vivo, Male Wistar rats; conditions: male, Wistar, brain and plasma, po; rat, 3 mg/kg, p.o. @ 1.0 hr, brain-plasma ratio; read-out: Single dose Rat Brain Penetration (Cb/Cp)
Procedure: Rodent Brain Penetration Study
Male Wistar rats (260±40 grams) were used as experimental animals. Three animals were housed in each cage. Animals were given water and food ad libitum throughout the experiment and maintained on a 12 h light/dark cycle.
Brain penetration was determined in discrete manner in rats. One day prior to dosing day, male Wistar rats were acclimatized and randomly grouped according to their weight. At each time point (0.5, 1 and 2 h) n=3 animals were used.
The test compounds were suitably preformulated and administered orally at (free base equivalent) 3 mg/kg. Blood samples were removed via cardiac puncture by using isoflurane anesthesia. The animals were sacrificed to collect brain tissue. Plasma was separated and brain samples were homogenized and stored frozen at −20° C. until analysis. The concentrations of the test compounds in plasma and brain were determined using LC-MS/MS method.
The test compounds were quantified in plasma and brain homogenate by qualified LC-MS/MS method using suitable extraction technique. The test compounds were quantified in the calibration range of 1-500 ng/mL in plasma and brain homogenate. Study samples were analyzed using calibration samples in the batch and quality control samples spread across the batch.

Male Wistar rats = assay: Object recognition task model; assay type: in vivo; conditions: rat, p.o.; for Exploration time mean ± S.E.M, Familiar object / Exploration time mean ± S.E.M, Novel object: choice trial 24 h after T1
Procedure: Object Recognition Task Model
The cognition enhancing properties of compounds of this invention were estimated by using this model.
Male Wistar rats (8-10 weeks old) were used as experimental animals. Four animals were housed in each cage. Animals were kept on 20% food deprivation from a day prior to experimentation. Water was provided ad libitum throughout the experiment. Animals were maintained on a 12 h light/dark cycle in temperature and humidity controlled room. The experiment was carried out in circular arena made up of acrylic. Rats were habituated to individual arenas for up to 45 min in the absence of any objects on day 1.
One group of 12 rats received vehicle and another set of animals received compound of the formula (I), before the familiar (T1) and choice (T2) trials. During the familiarization phase, (T1), the rats were placed individually in the arena for 3 minutes, in which two identical objects (a1 and a2) were positioned 10 cm from the wall. 24 h after T1, trial for long-term memory test was performed. The same rats were placed in the same arena as they were placed in T1 trial. During the choice phase (T2) rats were allowed to explore the arena for 3 minutes in presence of a copy of familiar object (a3) and one novel object (b). During the T1 and T2 trial, explorations of each object (defined as sniffing, licking, chewing or having moving vibrissae whilst directing the nose towards the object at a distance of less than 1 cm) were recorded using stopwatch.
T1 is the total time spent exploring the familiar objects (a1+a2).
T2 is the total time spent exploring the familiar object and novel object (a3+b).
The object recognition test was performed as described by Ennaceur, A., Delacour, J., 1988, A new one-trial test for neurobiological studies of memory in rats—Behavioural data, Behav. Brain Res., 31, 47-59.

[4] = system: hippocampal θ rhythm, anesthetized male Wistar rats; assay: Theta modulation in dorsal hippocampus of anesthetized rats in combination with donepezil; assay type: in vivo

Row | EC50 [1] [nM] | AUC(0-t) ([2]; iv, i.v. 1 mg/kg) [ng·h/mL] | half-life ([2]; iv, i.v. 1 mg/kg) [h] | clearance ([2]; iv, i.v. 1 mg/kg) [mL/min/kg] | bioavailability [2] [%] | AUC(0-t) ([2]; oral 3 mg/kg) [ng·h/mL] | Cmax ([2]; oral 3 mg/kg) [ng/mL] | Tmax ([2]; oral 3 mg/kg) [h] | half-life ([2]; oral 3 mg/kg) [h] | Kp at 1 h [3] | Structure (SMILES) | other results
1 | 197 | 6860 ± 1810 | 3.1 ± 0.3 | 2.5 ± 0.6 | 40 ± 11 | 8190 ± 2180 | 1540 ± 397 | 2 | 3.7 ± 0.3 | 0.78 ± 0.22 | Cc1c(Cc2ccc(-c3cnn(C)c3)cc2)cc(C(=O)N[C@H]2CCCC[C@@H]2O)c2ncccc12 [Example 15, N-(cis-1S,2S-2-Hydroxycyclohexyl)-6-[4-(1-methyl-1H-pyrazol-4-yl)-benzyl]-5-methylquinoline-8-carboxamide] | Inference (Male Wistar rats; 1 mg/kg): Active; Exploration time mean ± S.E.M, Familiar object (Male Wistar rats; 1 mg/kg): 12.93 ± 1.83 s; Exploration time mean ± S.E.M, Novel object (Male Wistar rats; 1 mg/kg): 20.42 ± 3.42 s
2 | 555 | 346 ± 25 | 0.8 ± 0.1 | 48 ± 3.4 | 13 ± 2.7 | 137 ± 28 | 70 ± 23 | 0.5 | 1.9 ± 0.1 | 1.27 ± 0.07 | Cc1c(Cc2ccccc2)cc(C(=O)N[C@H]2CCCC[C@@H]2O)c2ncccc12 [Example 14, N-(cis-1S,2S-2-Hydroxycyclohexyl)-6-benzyl-5-methylquinoline-8-carboxamide] | Inference (Male Wistar rats; 3 mg/kg): Active; Exploration time mean ± S.E.M, Familiar object (Male Wistar rats; 3 mg/kg): 8.35 ± 1.98 s; Exploration time mean ± S.E.M, Novel object (Male Wistar rats; 3 mg/kg): 15.54 ± 3.58 s

Row | Structure (SMILES) | EC50 [1] [nM] | AUC(0-t) ([2]; iv, i.v. 1 mg/kg) [ng·h/mL] | half-life ([2]; iv, i.v. 1 mg/kg) [h] | clearance ([2]; iv, i.v. 1 mg/kg) [mL/min/kg] | bioavailability [2] [%] | AUC(0-t) ([2]; oral 3 mg/kg) [ng·h/mL] | Cmax ([2]; oral 3 mg/kg) [ng/mL] | Tmax ([2]; oral 3 mg/kg) [h] | half-life ([2]; oral 3 mg/kg) [h] | Kp at 1 h [3] | other results
3 | Cc1c(Cc2ccc(-c3cnn(C)c3)cc2F)cc(C(=O)N[C@H]2CCCC[C@@H]2O)c2ncccc12 [Example 11, N-(cis-1S,2S-2-Hydroxycyclohexyl)-6-[2-fluoro-4-(1-methyl-1H-pyrazol-4-yl)-benzyl]-5-methylquinoline-8-carboxamide] | 100 | 12800 ± 2150 | 3.9 ± 0.2 | 1.3 ± 0.2 | 105 ± 25 | 40300 ± 9420 | 9690 ± 1420 | 1 to 2 | 4.8 ± 1.6 | 0.14 ± 0.01 | Inference (Male Wistar rats; 0.3 mg/kg): Active; Exploration time mean ± S.E.M, Familiar object (Male Wistar rats; 0.3 mg/kg): 12.20 ± 1.89 s; Exploration time mean ± S.E.M, Novel object (Male Wistar rats; 0.3 mg/kg): 17.33 ± 1.39 s; Mean area under the curve values (AUC) of θ power change compared with donepezil alone ([4]; Example 11 (1 mg/kg, i.v.) and donepezil (0.3 mg/kg, i.v.) vs donepezil alone): significantly higher compared to donepezil alone; effect on θ power of combination treatment compared with donepezil alone ([4]; Example 11 (1 mg/kg, i.v.) in combination with donepezil (0.3 mg/kg, i.v.) vs donepezil alone): significantly higher than the donepezil alone; θ power levels ([4]; Example 11 (1 mg/kg, i.v.) in combination with donepezil (0.3 mg/kg, i.v.), anesthetized rat): significant increase
